Measured values published in patent US5914242A, “Method for diminishing myocardial infarction using protein phosphatase inhibitors” (priority 1997, dated 1999).

Tests used:
[1] = system: divalent cation-independent serine/threonine protein phosphatase activity; test: Divalent cation-independent phosphatase activity in dilute whole cell homogenate of rabbit ventricle; format: biochemical; conditions: crude whole cell homogenate, [32P]-phosphohistone
Protocol: FIG. 5: Effect of fostriecin on the divalent cation-independent phosphatase activity contained in a dilute, whole cell homogenate of rabbit ventricle. Dilute homogenates of rabbit ventricle biopsies were assayed in the presence of the indicated amount of fostriecin. […] Assays were conducted in a total volume of 80 μl, and the indicated amount of fostriecin was added to the assay 10 minutes prior to initiation of the reaction by the addition of substrate. Each point represents the mean ± SE (n>6).
Determination of protein phosphatase activity: Protein phosphatase activity against phosphohistone was determined by the quantification of liberated [^32 P] from phosphohistone according to previously established methods (see Honkanen et al., J. Biol. Chem. 265:19401-04 (1990); Honkanen et al., Mol. Pharmacol. 40:577-83 (1991); and Critz and Honkanen, Neuroprotocols 6:78-83 (1995)). Assays (80 μl final volume) were conducted in 50 mM Tris-buffer (pH 7.4) containing 0.5 mM DTT, 4 mM EDTA, and phosphoprotein (2 μM PO4). […] [^32 P]Phosphate liberated by the enzyme was then extracted as a phosphomolybdate complex and measured according to the methods of Killilea et al., Arch. […] Aliquots of the upper phase (100 μl) were removed for counting, and radioactivity was quantified with a scintillation counter. […]

[2] = system: isolated myocytes; test: Isolated myocyte simulated ischemia, osmotic fragility (trypan blue) index; format: cell-based, rabbit; conditions: 10 μM fostriecin added at onset of ischemia, 120 min; untreated cells 14.3
Protocol: Isolated Myocytes: Rabbit hearts were mounted on a perfusion apparatus as described above and perfused with "high potassium/low calcium" perfusion buffer containing 125 mM NaCl, 30 mM KCl, 25 mM NaHCO3, 1.2 mM KH2 PO4, 1 mg/ml BSA, 1.2 mM MgCl2, 11 mM glucose, 0.68 mM 1-glutamine, and a complete amino acid solution (pH 7.4) for 5 minutes. Collagenase (Worthington Biochemical, Freehold, N.J.) was added at a concentration of 1.25 mg/ml and the heart was perfused for 45-60 minutes until it became soft. The heart was removed from the apparatus and minced in 5 mls of perfusion buffer containing 0.1% w/v BSA. […] Cell counts and viability were assessed by removing 10 μl aliquots, mixing with an equal volume of Tyrode's solution containing 1% trypan blue, and counting within 3-5 minutes by light microscopy. […]
To simulate ischemia, the suspension was divided into 4-6 conical Eppendorf tubes and each tube was spun lightly to form a 0.2-0.5 ml pellet of packed cells. […] Within 5 minutes, at least 300 cells were examined with an inverted stage microscope from multiple areas of the slide, and the numbers of rounded and rod-shaped cells and those stained with trypan blue recorded. […]
The percentage of stained (dead) cells was determined, and a plot of % dead cells vs. time was constructed. An index of non-survival was calculated as the area under the curve after 2 hours and presented as %-hr. […]

CC(O)(/C=C/C1CC=CC(=O)O1)C(CC(O)\C=C/C=C\C=C\CO)OP(=O)(O)O (centres unmarked) [fostriecin]
inhibition of phosphatase activity in rabbit heart ventricle homogenate [1]: inhibits
cell fragility index, area under the % trypan blue-positive cells vs time curve [2]: 10.6 %.cndot.hr
